Measurements as given in publication PMC11167047 (Cell Death Discovery, 2024).

Experiments:
Assay in all cases: kinome screen (33PanQinase)
Assay type in all cases: biochemical
ROCK2 = target: T1, ROCK2 (Homo sapiens, UniProt O75116)
T1 construct: purchased Reaction Biology Europe GmbH (formerly ProQinase)
Method: (§1) The Kinome Screening was performed by Reaction Biology Europe GmbH (http://reactionbiology.com; Freiburg i. Br., Germany).

CDK4/CycD2 = target: T2, CDK4/CycD2 (Homo sapiens, UniProt P11802)
T2 construct: purchased Reaction Biology Europe GmbH (formerly ProQinase)
T2 sequence (P11802 whole entry): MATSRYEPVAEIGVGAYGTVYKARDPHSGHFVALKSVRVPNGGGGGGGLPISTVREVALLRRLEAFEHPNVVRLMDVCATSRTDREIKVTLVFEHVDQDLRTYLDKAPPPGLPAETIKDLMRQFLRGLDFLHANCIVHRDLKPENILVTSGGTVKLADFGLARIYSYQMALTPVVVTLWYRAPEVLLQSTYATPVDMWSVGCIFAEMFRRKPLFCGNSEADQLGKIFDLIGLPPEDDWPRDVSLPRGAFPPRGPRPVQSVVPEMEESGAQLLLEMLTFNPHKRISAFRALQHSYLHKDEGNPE
T2 sequence (P30279 whole entry partner): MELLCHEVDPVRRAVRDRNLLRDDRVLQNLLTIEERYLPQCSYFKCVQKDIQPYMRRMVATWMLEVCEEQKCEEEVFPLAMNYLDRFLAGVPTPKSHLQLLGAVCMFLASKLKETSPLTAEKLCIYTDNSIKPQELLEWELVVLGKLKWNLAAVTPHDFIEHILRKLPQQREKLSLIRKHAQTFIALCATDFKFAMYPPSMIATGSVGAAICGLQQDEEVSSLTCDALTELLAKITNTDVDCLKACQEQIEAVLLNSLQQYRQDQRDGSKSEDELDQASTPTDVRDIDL
Method: as §1

PLK3 = target: T3, PLK3 (Homo sapiens, UniProt Q9H4B4)
T3 construct: purchased Reaction Biology Europe GmbH (formerly ProQinase)
T3 sequence (Q9H4B4 whole entry): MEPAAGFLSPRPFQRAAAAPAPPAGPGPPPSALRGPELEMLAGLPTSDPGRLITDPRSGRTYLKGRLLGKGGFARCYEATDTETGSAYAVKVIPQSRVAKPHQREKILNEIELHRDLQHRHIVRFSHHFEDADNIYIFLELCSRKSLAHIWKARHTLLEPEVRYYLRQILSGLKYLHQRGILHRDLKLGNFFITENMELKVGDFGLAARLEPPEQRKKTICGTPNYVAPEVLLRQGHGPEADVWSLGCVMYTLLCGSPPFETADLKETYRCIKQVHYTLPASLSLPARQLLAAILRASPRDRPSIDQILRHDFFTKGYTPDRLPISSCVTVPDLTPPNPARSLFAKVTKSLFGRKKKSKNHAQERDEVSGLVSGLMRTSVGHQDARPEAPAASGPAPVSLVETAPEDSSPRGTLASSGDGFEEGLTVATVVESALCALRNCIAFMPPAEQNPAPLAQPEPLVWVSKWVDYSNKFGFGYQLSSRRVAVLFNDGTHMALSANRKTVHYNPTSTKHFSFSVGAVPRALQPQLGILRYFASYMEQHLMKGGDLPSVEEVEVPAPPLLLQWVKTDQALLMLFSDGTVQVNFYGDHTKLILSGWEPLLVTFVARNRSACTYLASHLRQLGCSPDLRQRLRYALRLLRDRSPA
Method: as §1

SGK3 = target: T4, SGK3 (Homo sapiens, UniProt Q96BR1)
T4 construct: purchased Reaction Biology Europe GmbH (formerly ProQinase)
T4 sequence (Q96BR1 1-496): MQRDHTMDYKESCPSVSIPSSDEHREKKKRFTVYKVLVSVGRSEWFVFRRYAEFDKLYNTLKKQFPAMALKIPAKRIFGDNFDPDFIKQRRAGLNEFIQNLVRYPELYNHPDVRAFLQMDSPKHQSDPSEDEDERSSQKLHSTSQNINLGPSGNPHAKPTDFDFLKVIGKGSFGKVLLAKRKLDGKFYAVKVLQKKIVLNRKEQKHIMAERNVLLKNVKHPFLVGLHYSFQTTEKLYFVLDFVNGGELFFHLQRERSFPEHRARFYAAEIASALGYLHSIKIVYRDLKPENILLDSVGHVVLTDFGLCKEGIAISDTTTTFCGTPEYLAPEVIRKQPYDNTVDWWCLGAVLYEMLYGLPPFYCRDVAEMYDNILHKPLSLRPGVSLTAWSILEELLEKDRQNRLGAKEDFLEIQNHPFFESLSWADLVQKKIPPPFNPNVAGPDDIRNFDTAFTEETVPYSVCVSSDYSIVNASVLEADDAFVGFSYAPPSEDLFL
Method: as §1

TAOK2 = target: T5, TAOK2 (Homo sapiens, UniProt Q9UL54)
T5 construct: purchased Reaction Biology Europe GmbH (formerly ProQinase)
T5 sequence (Q9UL54 1-1235): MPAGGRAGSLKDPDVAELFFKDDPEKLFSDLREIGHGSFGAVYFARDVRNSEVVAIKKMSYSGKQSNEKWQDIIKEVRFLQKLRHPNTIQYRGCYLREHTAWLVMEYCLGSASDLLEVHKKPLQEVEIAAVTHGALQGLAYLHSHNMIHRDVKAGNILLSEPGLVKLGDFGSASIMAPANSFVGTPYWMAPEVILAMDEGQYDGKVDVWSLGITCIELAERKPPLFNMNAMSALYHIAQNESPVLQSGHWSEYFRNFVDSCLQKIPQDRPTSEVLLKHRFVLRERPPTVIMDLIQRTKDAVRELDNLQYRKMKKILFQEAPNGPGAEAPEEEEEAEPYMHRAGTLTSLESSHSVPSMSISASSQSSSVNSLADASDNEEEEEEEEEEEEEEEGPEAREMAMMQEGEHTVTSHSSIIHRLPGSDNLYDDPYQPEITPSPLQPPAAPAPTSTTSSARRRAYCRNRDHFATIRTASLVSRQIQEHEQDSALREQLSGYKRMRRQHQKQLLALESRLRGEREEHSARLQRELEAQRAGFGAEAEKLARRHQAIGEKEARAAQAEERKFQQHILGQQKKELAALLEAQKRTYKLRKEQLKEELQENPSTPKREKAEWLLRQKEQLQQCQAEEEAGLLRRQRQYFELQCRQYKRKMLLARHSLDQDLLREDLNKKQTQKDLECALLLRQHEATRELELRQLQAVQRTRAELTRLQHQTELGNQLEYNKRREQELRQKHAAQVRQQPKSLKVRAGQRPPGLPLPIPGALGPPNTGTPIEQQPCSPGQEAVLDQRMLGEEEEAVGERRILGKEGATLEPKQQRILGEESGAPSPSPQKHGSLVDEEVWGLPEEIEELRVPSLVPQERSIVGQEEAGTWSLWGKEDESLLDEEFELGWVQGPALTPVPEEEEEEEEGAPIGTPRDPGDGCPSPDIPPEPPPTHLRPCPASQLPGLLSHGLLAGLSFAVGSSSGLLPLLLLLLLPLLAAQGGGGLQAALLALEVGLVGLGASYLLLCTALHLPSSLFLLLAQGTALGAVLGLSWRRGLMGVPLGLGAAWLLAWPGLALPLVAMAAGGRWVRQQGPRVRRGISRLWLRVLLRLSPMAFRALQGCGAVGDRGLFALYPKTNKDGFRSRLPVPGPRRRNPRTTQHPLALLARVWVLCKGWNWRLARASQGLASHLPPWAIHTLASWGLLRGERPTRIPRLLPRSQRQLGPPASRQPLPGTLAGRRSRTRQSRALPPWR
Method: as §1

MATK = target: T6, MATK (Homo sapiens, UniProt P42679)
T6 construct: purchased Reaction Biology Europe GmbH (formerly ProQinase)
T6 sequence (P42679 1-507): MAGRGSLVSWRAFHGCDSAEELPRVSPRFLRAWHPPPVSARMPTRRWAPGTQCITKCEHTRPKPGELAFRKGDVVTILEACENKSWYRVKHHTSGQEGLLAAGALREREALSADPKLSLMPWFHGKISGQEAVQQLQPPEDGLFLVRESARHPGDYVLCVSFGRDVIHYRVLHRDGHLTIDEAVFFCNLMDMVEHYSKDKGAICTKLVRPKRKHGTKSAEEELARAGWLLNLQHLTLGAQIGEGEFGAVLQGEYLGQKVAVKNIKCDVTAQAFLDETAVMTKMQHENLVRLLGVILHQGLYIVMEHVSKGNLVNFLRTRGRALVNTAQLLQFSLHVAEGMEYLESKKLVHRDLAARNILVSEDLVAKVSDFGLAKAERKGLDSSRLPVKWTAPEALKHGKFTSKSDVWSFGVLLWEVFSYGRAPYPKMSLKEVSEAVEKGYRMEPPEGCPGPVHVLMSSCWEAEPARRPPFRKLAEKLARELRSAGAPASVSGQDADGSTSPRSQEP
Method: as §1

GRK5 = target: T7, GRK5 (Homo sapiens, UniProt P34947)
T7 construct: purchased Reaction Biology Europe GmbH (formerly ProQinase)
T7 sequence (P34947 whole entry): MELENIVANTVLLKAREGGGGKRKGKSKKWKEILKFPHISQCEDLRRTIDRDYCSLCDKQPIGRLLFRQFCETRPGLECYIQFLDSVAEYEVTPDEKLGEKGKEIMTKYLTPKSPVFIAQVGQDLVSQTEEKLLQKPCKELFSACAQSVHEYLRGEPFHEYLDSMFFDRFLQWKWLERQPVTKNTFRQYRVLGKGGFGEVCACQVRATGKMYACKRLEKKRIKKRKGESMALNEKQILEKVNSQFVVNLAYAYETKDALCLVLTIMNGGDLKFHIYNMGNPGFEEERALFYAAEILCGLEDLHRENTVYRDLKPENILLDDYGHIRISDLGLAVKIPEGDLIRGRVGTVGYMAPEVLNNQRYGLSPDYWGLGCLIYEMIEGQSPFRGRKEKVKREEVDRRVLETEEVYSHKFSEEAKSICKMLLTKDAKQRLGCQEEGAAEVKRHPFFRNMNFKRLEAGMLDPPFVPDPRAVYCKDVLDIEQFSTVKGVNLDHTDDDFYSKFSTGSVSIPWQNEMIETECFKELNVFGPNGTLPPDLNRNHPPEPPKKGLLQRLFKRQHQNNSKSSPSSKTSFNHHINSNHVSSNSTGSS
Method: as §1

ERBB2 = target: T8, ERBB2 (Homo sapiens, UniProt P04626)
T8 construct: purchased Reaction Biology Europe GmbH (formerly ProQinase)
T8 sequence (P04626 23-1255): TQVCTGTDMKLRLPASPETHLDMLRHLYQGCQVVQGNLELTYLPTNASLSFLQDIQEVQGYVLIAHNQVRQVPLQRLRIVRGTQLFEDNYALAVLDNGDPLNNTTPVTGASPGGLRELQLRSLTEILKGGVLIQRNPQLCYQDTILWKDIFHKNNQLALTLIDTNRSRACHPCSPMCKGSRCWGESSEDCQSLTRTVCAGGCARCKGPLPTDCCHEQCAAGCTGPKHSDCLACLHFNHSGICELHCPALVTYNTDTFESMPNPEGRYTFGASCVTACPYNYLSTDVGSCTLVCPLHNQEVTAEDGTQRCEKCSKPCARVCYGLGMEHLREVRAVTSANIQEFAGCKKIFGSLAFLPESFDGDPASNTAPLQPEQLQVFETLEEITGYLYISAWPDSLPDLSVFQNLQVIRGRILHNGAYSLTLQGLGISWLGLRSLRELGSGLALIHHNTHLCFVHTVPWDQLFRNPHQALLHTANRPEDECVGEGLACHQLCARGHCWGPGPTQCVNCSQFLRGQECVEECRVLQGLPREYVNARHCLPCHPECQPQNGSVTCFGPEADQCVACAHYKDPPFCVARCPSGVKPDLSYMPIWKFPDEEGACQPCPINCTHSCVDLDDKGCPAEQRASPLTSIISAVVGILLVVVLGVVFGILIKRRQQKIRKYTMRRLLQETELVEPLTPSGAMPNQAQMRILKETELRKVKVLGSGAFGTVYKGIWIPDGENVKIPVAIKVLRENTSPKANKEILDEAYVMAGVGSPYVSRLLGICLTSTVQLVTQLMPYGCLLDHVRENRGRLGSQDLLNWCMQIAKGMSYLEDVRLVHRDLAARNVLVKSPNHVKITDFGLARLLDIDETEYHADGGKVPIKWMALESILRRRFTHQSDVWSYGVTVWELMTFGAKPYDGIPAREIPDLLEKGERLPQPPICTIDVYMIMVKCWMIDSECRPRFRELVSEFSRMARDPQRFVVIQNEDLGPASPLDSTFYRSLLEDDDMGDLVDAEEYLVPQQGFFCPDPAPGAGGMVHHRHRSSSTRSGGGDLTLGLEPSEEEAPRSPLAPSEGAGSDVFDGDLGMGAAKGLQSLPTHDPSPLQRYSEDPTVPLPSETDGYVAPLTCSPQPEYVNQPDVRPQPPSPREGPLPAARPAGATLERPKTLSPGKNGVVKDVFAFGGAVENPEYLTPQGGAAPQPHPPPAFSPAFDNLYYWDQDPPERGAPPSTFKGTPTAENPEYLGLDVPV
Method: as §1

HIPK2 = target: T9, HIPK2 (Homo sapiens, UniProt Q9H2X6)
T9 construct: purchased Reaction Biology Europe GmbH (formerly ProQinase)
T9 sequence (Q9H2X6 whole entry): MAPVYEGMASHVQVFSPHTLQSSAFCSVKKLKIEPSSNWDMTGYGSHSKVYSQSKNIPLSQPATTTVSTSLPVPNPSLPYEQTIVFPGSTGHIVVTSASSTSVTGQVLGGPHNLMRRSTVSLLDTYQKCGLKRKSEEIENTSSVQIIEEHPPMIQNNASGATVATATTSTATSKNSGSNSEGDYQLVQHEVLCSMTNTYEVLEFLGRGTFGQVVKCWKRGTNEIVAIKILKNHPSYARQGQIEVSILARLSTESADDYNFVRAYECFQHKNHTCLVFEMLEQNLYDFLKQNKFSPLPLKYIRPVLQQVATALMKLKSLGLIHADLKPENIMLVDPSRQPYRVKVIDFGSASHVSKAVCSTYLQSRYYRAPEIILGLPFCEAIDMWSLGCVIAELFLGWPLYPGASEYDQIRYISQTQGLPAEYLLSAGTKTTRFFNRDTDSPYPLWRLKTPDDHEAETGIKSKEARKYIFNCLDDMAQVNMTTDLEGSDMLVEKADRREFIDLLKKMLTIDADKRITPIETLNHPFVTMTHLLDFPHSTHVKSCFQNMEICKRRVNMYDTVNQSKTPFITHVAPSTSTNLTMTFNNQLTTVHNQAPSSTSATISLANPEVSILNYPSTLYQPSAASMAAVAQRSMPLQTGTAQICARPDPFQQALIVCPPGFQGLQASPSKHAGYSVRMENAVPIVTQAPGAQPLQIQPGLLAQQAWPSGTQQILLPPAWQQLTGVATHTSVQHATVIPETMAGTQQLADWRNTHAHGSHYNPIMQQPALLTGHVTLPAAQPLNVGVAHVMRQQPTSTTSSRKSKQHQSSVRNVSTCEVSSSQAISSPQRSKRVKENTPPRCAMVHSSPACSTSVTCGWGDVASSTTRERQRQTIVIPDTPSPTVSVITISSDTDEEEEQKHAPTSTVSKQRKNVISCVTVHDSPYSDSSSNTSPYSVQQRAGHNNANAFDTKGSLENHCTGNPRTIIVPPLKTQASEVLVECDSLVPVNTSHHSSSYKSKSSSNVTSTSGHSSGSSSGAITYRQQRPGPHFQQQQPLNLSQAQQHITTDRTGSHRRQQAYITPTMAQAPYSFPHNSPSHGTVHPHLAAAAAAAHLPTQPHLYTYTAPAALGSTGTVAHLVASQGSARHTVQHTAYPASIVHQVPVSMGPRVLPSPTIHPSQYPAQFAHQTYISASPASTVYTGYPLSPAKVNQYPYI
Method: as §1

RPS6KA4 = target: T10, RPS6KA4 (Homo sapiens, UniProt O75676)
T10 construct: purchased Reaction Biology Europe GmbH (formerly ProQinase)
Method: as §1

CDK3/CycC = target: T11, CDK3/CycC (Homo sapiens, UniProt Q00526)
T11 construct: purchased Reaction Biology Europe GmbH (formerly ProQinase)
T11 sequence (Q00526 whole entry): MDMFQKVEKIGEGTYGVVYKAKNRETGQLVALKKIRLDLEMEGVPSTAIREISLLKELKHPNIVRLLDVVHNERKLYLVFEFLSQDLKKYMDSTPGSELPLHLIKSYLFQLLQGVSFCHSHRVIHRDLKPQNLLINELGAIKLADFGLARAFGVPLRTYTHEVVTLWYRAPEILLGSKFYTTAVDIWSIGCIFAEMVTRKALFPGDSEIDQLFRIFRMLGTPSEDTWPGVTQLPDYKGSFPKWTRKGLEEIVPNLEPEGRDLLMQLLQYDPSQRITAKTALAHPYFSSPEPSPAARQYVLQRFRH
T11 sequence (P24863 whole entry partner): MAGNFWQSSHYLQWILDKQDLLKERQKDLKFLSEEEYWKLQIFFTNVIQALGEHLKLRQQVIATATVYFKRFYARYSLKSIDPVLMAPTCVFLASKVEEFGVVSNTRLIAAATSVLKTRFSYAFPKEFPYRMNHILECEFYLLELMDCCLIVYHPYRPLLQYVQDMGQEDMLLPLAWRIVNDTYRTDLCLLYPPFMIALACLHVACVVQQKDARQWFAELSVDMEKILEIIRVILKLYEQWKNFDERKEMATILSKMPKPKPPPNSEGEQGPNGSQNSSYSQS
Method: as §1

SMILES	residual kinase activity (ROCK2; 0.3 µM)	residual kinase activity (CDK4/CycD2; 0.3 µM)	residual kinase activity (PLK3; 0.3 µM)	residual kinase activity (SGK3; 0.3 µM)	residual kinase activity (TAOK2; 0.3 µM)	residual kinase activity (MATK; 0.3 µM)	residual kinase activity (GRK5; 0.3 µM)	residual kinase activity (ERBB2; 0.3 µM)	residual kinase activity (HIPK2; 0.3 µM)	residual kinase activity (RPS6KA4; 0.3 µM)	residual kinase activity (CDK3/CycC; 0.3 µM)	also measured
c1ccc(CNc2cc(-c3c[nH]c4ncccc34)ccn2)cc1 [meriolin 36]	1 % of control	21 % of control	97 % of control	81 % of control	60 % of control	134 % of control	119 % of control	90 % of control	22 % of control	71 % of control	9 % of control	residual kinase activity (ROCK2; 3 µM): 0 % of control; residual kinase activity (CDK4/CycD2; 3 µM): 3 % of control; residual kinase activity (PLK3; 3 µM): 87 % of control; residual kinase activity (SGK3; 3 µM): 27 % of control; residual kinase activity (TAOK2; 3 µM): 19 % of control; residual kinase activity (MATK; 3 µM): 94 % of control; residual kinase activity (GRK5; 3 µM): 74 % of control; residual kinase activity (ERBB2; 3 µM): 44 % of control; residual kinase activity (HIPK2; 3 µM): 3 % of control; residual kinase activity (RPS6KA4; 3 µM): 29 % of control; residual kinase activity (CDK3/CycC; 3 µM): 3 % of control
COc1ccnc2[nH]cc(-c3cc(N)nc(N)c3)c12 [meriolin 16]	1 % of control	34 % of control	92 % of control	84 % of control	89 % of control	90 % of control	91 % of control	102 % of control	4 % of control	89 % of control	20 % of control	residual kinase activity (ROCK2; 0.03 µM): 12 % of control; residual kinase activity (CDK4/CycD2; 0.03 µM): 81 % of control; residual kinase activity (PLK3; 0.03 µM): 95 % of control; residual kinase activity (SGK3; 0.03 µM): 94 % of control; residual kinase activity (TAOK2; 0.03 µM): 107 % of control; residual kinase activity (MATK; 0.03 µM): 107 % of control; residual kinase activity (GRK5; 0.03 µM): 118 % of control; residual kinase activity (ERBB2; 0.03 µM): 102 % of control; residual kinase activity (HIPK2; 0.03 µM): 36 % of control; residual kinase activity (RPS6KA4; 0.03 µM): 90 % of control; residual kinase activity (CDK3/CycC; 0.03 µM): 71 % of control
